From patent US10189838B2, “Aza-oxo-indoles for the treatment and prophylaxis of respiratory syncytial virus infection” (Hoffmann-La Roche Inc., priority 2013, dated 2019) come the findings set out here.

This assay has as its system RSV Long strain. Kind of assay: Viral cytopathic effect (CPE) assay, RSV Long strain. As to conditions: cell viability after 6 days (Cell Counting kit-8). The assay is classed as cell-based, Respiratory Syncytial Virus. The procedure:
EC50: the concentration of a compound where 50% of its maximal protection effect against viral induced CPE is observed
LongStrain: an A subtype RSV strain obtained from ATCC with catalog number VR-26
To measure anti-RSV activity of compounds, 96-well plates are seeded with 6×10^3 cells per well in Dulbecco's modified Eagle's medium (DMEM) containing 10% fetal bovine serum (FBS). Cells are infected the next day with sufficient RSV Long strain (ATCC) to produce an approximately 80-90% cytopathic effect after 6 days, in the presence of serial half-log diluted compound in a total volume of […] per well. The viability of cells is assessed after 6 days using Cell Counting kit-8 (Dojindo Molecular Technologies). The absorbance at 450 nm and referenced at 630 nm is measured to determine 50% effective concentration (EC50)
(In general: Damage to the host cells serves as the signal in cytopathic effect assays.)

Setting [1] is: human respiratory syncytial virus, 144 h.

In the case of `N=C(N)NCCn1c(CN2C(=O)C3(CC3)c3ccncc32)cc2cc(Cl)ccc21` [Example 28], the midpoint of the response, the EC50, lay at 64 nM.
For `O=C1N(Cc2cc3cc(Cl)ccc3n2CCCO)c2cnccc2C12CC2` [Example 8, 1′-{[5-Chloro-1-(3-hydroxypropyl)-1H-indol-2-yl]methyl}spiro[cyclopropane-1,3′-pyrrolo[2,3-c]pyridin]-2′(1′H)-one], the EC50 (usually the midpoint of the concentration-response curve) under setting [1] worked out at 58 nM.
The same measure, in the same setting: the same measure for `CS(=O)(=O)CCn1c(CN2C(=O)C3(CC3)c3ccncc32)cc2cc(F)cc(F)c21` [Example 1-9, 1′-({5,7-Difluoro-1-[2-(methylsulfonyl)ethyl]-1H-indol-2-yl}methyl)spiro[cyclopropane-1,3′-pyrrolo[2,3-c]pyridin]-2′(1′H)-one]: 24 nM; for `CS(=O)(=O)CCCn1c(CN2C(=O)C3(CC3)c3ccncc32)nc2cc(Cl)ccc21` [Example 36-1, 1′-({5-Chloro-1-[3-(methylsulfonyl)propyl]-1H-benzimidazol-2-yl}methyl)spiro[cyclopropane-1,3′-pyrrolo[2,3-c]pyridin]-2′(1′H)-one]: 2 nM; for `O=C1CN(S(=O)(=O)CCCn2c(CN3C(=O)C4(CC4)c4ccncc43)cc3cc(Cl)ccc32)CCN1` [Example 7-6, 1′-[(5-Chloro-1-{3-[(3-oxopiperazin-1-yl)sulfonyl]propyl}-1H-indol-2-yl)methyl]spiro[cyclopropane-1,3′-pyrrolo[2,3-c]pyridin]-2′(1′H)-one]: 7 nM.
With `O=C1N(Cc2cc3cc(Cl)ccc3n2CCCN2CCS(=O)(=O)CC2)c2cnccc2C12CC2` [Example 7-9, 1′-({5-Chloro-1-[3-(1,1-dioxidothiomorpholin-4-yl)propyl]-1H-indol-2-yl}methyl)spiro[cyclopropane-1,3′-pyrrolo[2,3-c]pyridin]-2′(1′H)-one], the EC50 under setting [1] was 797 nM.
Same read-out and setting: the same measure for `O=C1N(Cc2nc3cc(Cl)ccc3n2CCC2COC2)c2cnccc2C12CC2` [Example 38-2, 1′-({5-Chloro-1-[2-(oxetan-3-yl)ethyl]-1H-benzimidazol-2-yl}methyl)spiro[cyclopropane-1,3′-pyrrolo[2,3-c]pyridin]-2′(1′H)-one]: 3 nM; for `CC(=O)N=S(C)(=O)CCn1c(CN2C(=O)C3(CC3)c3ccncc32)cc2cc(Cl)ccc21` (centres unmarked) [Example 15, N-[(2-{5-Chloro-2-[(2′-oxospiro[cyclopropane-1,3′-pyrrolo[2,3-c]pyridin]-1′(2′H)-yl)methyl]-1H-indol-1-yl}ethyl)(methyl)oxido-λ^6-sulfanylidene]acetamide]: 25 nM.
Same read-out and setting: the same measure for `CS(=O)(=O)CCn1c(CN2C(=O)C3(CC3)c3ccncc32)cc2cc(Cl)ccc21` [Example 3-3, 1′-({5-Chloro-1-[2-(methylsulfonyl)ethyl]-1H-indol-2-yl}methyl)spiro[cyclopropane-1,3′-pyrrolo[2,3-c]pyridin]-2′(1′H)-one]: 18 nM.
The same measure, in the same setting: the same measure for `CS(=O)(=O)CCn1c(CN2C(=O)C3(CCC3)c3ccncc32)cc2cc(Cl)cnc21` [Example 2-4, 1′-({5-Chloro-1-[2-(methylsulfonyl)ethyl]-1H-pyrrolo[2,3-b]pyridin-2-yl}methyl)spiro[cyclobutane-1,3′-pyrrolo[2,3-c]pyridin]-2′(1′H)-one]: 28.8 nM; for `CS(=O)(=O)CCCc1c(CN2C(=O)C3(CC3)c3ccncc32)[nH]c2cc(Cl)ccc12` [Example 33, 1′-({6-Chloro-3-[3-(methylsulfonyl)propyl]-1H-indol-2-yl}methyl)spiro[cyclopropane-1,3′-pyrrolo[2,3-c]pyridin]-2′(1′H)-one]: 6 nM.
With `CN(Cc1ccccc1)S(=O)(=O)CCCn1c(CN2C(=O)C3(CC3)c3ccncc32)cc2cc(Cl)cnc21` [Example 4-8, N-Benzyl-3-{5-chloro-2-[(2′-oxospiro[cyclopropane-1,3′-pyrrolo[2,3-c]pyridin]-1′(2′H)-yl)methyl]-1H-pyrrolo[2,3-b]pyridin-1-yl}-N-methylpropane-1-sulfonamide], a half-maximal effect under setting [1] (EC50) was put at 778 nM. This EC50 lies about 130-fold higher than the previous one.
Regarding `CS(=O)(=O)CCCCn1c(CN2C(=O)C3(CC3)c3ccncc32)cc2cc(Cl)ccc21` [Example 4-1, 1′-({5-Chloro-1-[4-(methylsulfonyl)butyl]-1H-indol-2-yl}methyl)spiro[cyclopropane-1,3′-pyrrolo[2,3-c]pyridin]-2′(1′H)-one], a half-maximal effect under setting [1] (EC50) was put at 5.9 nM.
The same measure, in the same setting: for `O=C1N(Cc2cc3cc(Cl)ccc3n2CCCNCCO)c2cnccc2C12CC2` [Example 29, 1′-[(5-Chloro-1-{3-[(2-hydroxyethyl)amino]propyl}-1H-indol-2-yl)methyl]spiro[cyclopropane-1,3′-pyrrolo[2,3-c]pyridin]-2′(1′H)-one] the value was 244 nM; for `CS(=O)(=O)CCCCn1c(CN2C(=O)C3(CC3)c3ccncc32)cc2cc(Cl)ncc21` [Example 4-7, 1′-({5-Chloro-1-[4-(methylsulfonyl)butyl]-1H-pyrrolo[2,3-c]pyridin-2-yl}methyl)spiro[cyclopropane-1,3′-pyrrolo[2,3-c]pyridin]-2′(1′H)-one], 27 nM.
In the case of `Cc1cnc2c(c1)cc(CN1C(=O)C3(CC3)c3ccncc31)n2CCS(C)(=O)=O` [Example 4-4, 1′-({5-Methyl-1-[2-(methylsulfonyl)ethyl]-1H-pyrrolo[2,3-b]pyridin-2-yl}methyl)spiro[cyclopropane-1,3′-pyrrolo[2,3-c]pyridin]-2′(1′H)-one], the EC50 under setting [1] was 64 nM. Compared with the last compound, the EC50 is about 2.4-fold higher.
With `O=C1N(Cc2cc3cc(Cl)ncc3n2CCC2CSC2)c2cnccc2C12CC2` [Example 4-10, 1′-({5-Chloro-1[2-(thietan-3-yl)ethyl]-1H-pyrrolo[2,3-c]pyridin-2-yl}methyl)spiro[cyclopropane-1,3′-pyrrolo[2,3-c]pyridin]-2′(1′H)-one], under setting [1], the EC50 is 74 nM.
As for `O=C1N(Cc2cc3nc(Cl)ccc3n2CCS(=O)(=O)C2CC2)c2cnccc2C12CC2` [Example 4-14, 1′-({5-Chloro-1-[2-(cyclopropylsulfonyl)ethyl]-1H-pyrrolo[3,2-b]pyridin-2-yl}methyl)spiro[cyclopropane-1,3′-pyrrolo[2,3-c]pyridin]-2′(1′H)-one], under setting [1], the EC50 stood at 72 nM.
Still for that read-out and setting: for `CCS(=O)(=O)CCc1c(CN2C(=O)C3(CC3)c3cccnc32)[nH]c2cc(Cl)ccc12` [Example 32-1, 1′-({6-Chloro-3-[2-(ethylsulfonyl)ethyl]-1H-indol-2-yl}methyl)spiro[cyclopropane-1,3′-pyrrolo[2,3-b]pyridin]-2′(1′H)-one] the value was 9 nM.
In turn, `NC1(Cn2c(CN3C(=O)C4(CC4)c4ccncc43)nc3cc(Cl)cc(F)c32)COC1` [Example 39-2, 1′-({1-[(3-Aminooxetan-3-yl)methyl]-5-chloro-7-fluoro-1H-benzimidazol-2-yl}methyl)spiro[cyclopropane-1,3′-pyrrolo[2,3-c]pyridin]-2′(1′H)-one] came in with an EC50 under setting [1] of 227 nM. Against the preceding compound, the EC50 is about 25-fold higher.
Still for that read-out and setting: the same measure for `CCOC(=O)CCn1c(CN2C(=O)C3(CC3)c3ccncc32)cc2cc(Cl)ccc21` [Example 11, Ethyl 3-{5-chloro-2-[(2′-oxospiro[cyclopropane-1,3′-pyrrolo[2,3-c]pyridin]-1′(2′H)-yl)methyl]-1H-indol-1-yl}propanoate]: 19 nM; for `CS(=O)(=O)CCCn1c(CN2C(=O)C3(CC3)c3ccncc32)cc2cc(Cl)ccc21` [Example 22-3, 1′-({5-Chloro-1-[3-(methylsulfonyl)propyl]-1H-indol-2-yl}methyl)spiro[cyclopropane-1,3′-pyrrolo[2,3-c]pyridin]-2′(1′H)-one]: 3 nM.
On the same count and under the same terms, for `O=C1N(Cc2nc3cc(Cl)ccc3n2CC2COC2)c2cnccc2C12CC2` [Example 38-1, 1′-{[5-Chloro-1-(oxetan-3-ylmethyl)-1H-benzimidazol-2-yl]methyl}spiro[cyclopropane-1,3′-pyrrolo[2,3-c]pyridin]-2′(1′H)-one] the value was 3 nM; for `O=C1CNCCN1CCCn1c(CN2C(=O)C3(CC3)c3ccncc32)cc2cc(Cl)ccc21` [Example 24-4, 1′-({5-Chloro-1-[3-(2-oxopiperazin-1-yl)propyl]-1H-indol-2-yl}methyl)spiro[cyclopropane-1,3′-pyrrolo[2,3-c]pyridin]-2′(1′H)-one], 30 nM; for `O=C1N(Cc2cc3cc(Cl)ncc3n2CCC2CS(=O)(=O)C2)c2cnccc2C12CC2` [Example 4-11, 1′-({5-Chloro-1-[2-(1,1-dioxidothietan-3-yl)ethyl]-1H-pyrrolo[2,3-c]pyridin-2-yl}methyl)spiro[cyclopropane-1,3′-pyrrolo[2,3-c]pyridin]-2′(1′H)-one], 18 nM.
`CCS(=O)(=O)CCn1c(CN2C(=O)C3(CC3)c3cccnc32)cc2cc(Cl)ccc21` [Example 2-3, 1′-({5-Chloro-1-[2-(ethylsulfonyl)ethyl]-1H-indol-2-yl}methyl)spiro[cyclopropane-1,3′-pyrrolo[2,3-b]pyridin]-2′(1′H)-one] displayed a 50% effective concentration (EC50) under setting [1] of 247 nM.
The same measure, in the same setting: for `CS(=O)(=O)CCn1c(CN2C(=O)C3(CC3)c3ccncc32)cc2cccc(Cl)c21` [Example 1-7, 1′-({7-Chloro-1-[2-(methylsulfonyl)ethyl]-1H-indol-2-yl}methyl)spiro[cyclopropane-1,3′-pyrrolo[2,3-c]pyridin]-2′(1′H)-one] the value was 164 nM.
Under setting [1], `COC(=O)CCCn1c(CN2C(=O)C3(CC3)c3ccncc32)cc2cc(Cl)ccc21` [Example 17, Methyl 4-{5-chloro-2-[(2′-oxospiro[cyclopropane-1,3′-pyrrolo[2,3-c]pyridin]-1′(2′H)-yl)methyl]-1H-indol-1-yl}butanoate] had a concentration giving a half-maximal response (EC50) of 18.6 nM. This EC50 lies about 8.8-fold lower than the previous one.
Take `O=C1N(Cc2cc3cc(Cl)ccc3n2CCCS(=O)(=O)N2CCOCC2)c2cnccc2C12CC2` [Example 7-4, 1′-({5-Chloro-1-[3-(morpholin-4-ylsulfonyl)propyl]-1H-indol-2-yl}methyl)spiro[cyclopropane-1,3′-pyrrolo[2,3-c]pyridin]-2′(1′H)-one]: the response under setting [1] was half-maximal at 14 nM (EC50).
